A melting point compilation (Tetko et al.; mined from patent text by program, amines drawn as free bases though some values may be those of a salt)

Compared with CCOC(=O)C1=C(C)Nc2nc(N3CCOCC3)nc(N3CCOCC3)c2C1c1cccc([N+](=O)[O-])c1 (centres undefined), COc1cc2c(cc1Nc1ncc(Cl)c(Nc3ccccc3S(=O)(=O)N(C)C)n1)CCN(CCCN1CCOCC1)C(=O)C2 is lower in melting point: 190 °C for the first, 78 to 87 °C for the second.

Compared with CCN1CC(OCC2CCC2)(C(F)(F)F)c2cc(F)ccc2NC1=O (centres undefined), COc1ccc(C2=NN(Cc3ccccc3C(F)(F)F)C(=O)[C@H]3CCCC[C@@H]23)cc1OC (relative stereo) is lower in melting point: 137 to 138 °C for the first, 87 to 88 °C for the second.

O=C1CCC(N2Cc3c(CNC(=O)Nc4ccc(Cl)cc4)cccc3C2=O)C(=O)N1 (centres undefined) and CC(=O)Nc1ccc(N2C(=O)CCCC2c2ccc(Cl)c(Cl)c2)cc1 (centres undefined) cannot be ordered by melting point: > 260 °C for the first, 267 to 268 °C for the second.

Compared with Fc1cccc(F)c1-c1ncc(-c2ccc(Br)cc2)cn1, CC(C)c1nnc2ccc(-c3ocnc3-c3c(F)cccc3F)cn12 is lower in melting point: 193 to 194 °C for the first, 176 °C for the second.

Compared with O=c1cc2c(n[nH]1)-c1ccccc1CC2, C[C@H]1C(=O)CCN1c1ccc(C#N)c2ccccc12 is lower in melting point: 236 °C for the first, 113 to 114 °C for the second.

First: O=C(O)c1cccc(-c2ccc(-c3ccc(C(F)(F)F)cc3)o2)c1
Second: NC(=O)c1ccc(-c2ccc3[nH]c(=O)ccc3c2)cc1
The melting point of the first is lower: 271 to 272 °C for the first, > 320 °C for the second.

Compared with CC1(C)Cc2c(N)c(Cl)cc(-c3nc(C4CCN(CCCC#N)CC4)no3)c2O1, CCCCS(=O)(=O)N1CCC(c2ccc(O)cc2O)CC1 is higher in melting point: 151 °C for the first, 182 to 183 °C for the second.

First: Cc1cccc(C)c1CO
Second: CCCCc1c(Cl)nc(N)nc1-c1ccccc1
The melting point of the first is lower: 84 °C for the first, 183 to 185 °C for the second.

First: COC(=O)CC/C(C)=C/Cc1c(C#N)c2c(c(C)c1OC)COC2=O
Second: COc1cc(NC(=O)CC#N)cc(OC)c1OC
The melting point of the first is lower: 87 to 88 °C for the first, 146 to 147 °C for the second.

First: Cc1ccc(N)cc1Nc1ncc(-c2ccc(C#N)cc2)o1
Second: N#Cc1ccc(-c2ccc(OCc3ccc4ccccc4n3)cc2)c(-c2ccncc2)c1
The melting point of the first is lower: 144 °C for the first, 190 to 193 °C for the second.

Going from Cc1cc(C)cc(C23SCCN2C(=O)c2ccccc23)c1 (centres undefined) to CCC(C)N(C)C(=O)c1cc(-c2ccccc2Cl)c2sccc2c1 (centres undefined), the melting point falls from 163 °C to 98 °C.

Compared with C(=Cc1ccccc1)COc1ccc(C2OCCO2)cc1, CCC1CCC(CCc2ccccc2NC(=O)C=Cc2ccccc2)N(C)C1 (centres undefined) is lower in melting point: 102 °C for the first, 91 to 98 °C for the second.

Going from CS(=O)(=O)c1ccc(C(O)c2cccc3ccccc23)cc1 (centres undefined) to COC(=O)c1ccccc1S(=O)(=O)c1ccc(/C=C/c2ccc(F)cc2)cc1, the melting point falls from 160 °C to 125 °C.

Compared with CN(C)C(=S)Oc1ccc2ncc([N+](=O)[O-])c(-c3ccccc3)c2c1, CCN(CC)CCCNC(=O)Cn1ncc(-c2ccc([N+](=O)[O-])cc2)c1-c1ccccc1 is lower in melting point: 205 to 208 °C for the first, 100 to 101 °C for the second.

First: O=C(CCCN1CC=C(c2cccc3[nH]ccc23)CC1)c1ccc(F)cc1
Second: O=C(CCCc1ccccc1)NCc1ccc(C(=O)O)cc1
The melting point of the first is lower: 155 °C for the first, 178 to 179 °C for the second.

First: Cc1oc(-c2ccccc2)nc1CCc1ccc(/C=C/C=C/C=C2OC(=O)NC2=O)cc1
Second: Cc1oc(-c2ccccc2)nc1Cc1cc2cc(C=CC=C3OC(=O)NC3=O)ccc2o1
The melting point of the first is lower: 208 to 210 °C for the first, 237 to 239 °C for the second.

Compared with Cc1c(O)cccc1C(=O)N[C@@H](Cc1ccccc1)[C@H](O)C(=O)N1CSC(C)(C)[C@H]1C(=O)NCc1cccc(OC(F)(F)F)c1, Cc1ccc(NC(=O)N(Cc2ccccc2)Cc2ccccc2)c(C)c1 is higher in melting point: 102 to 105 °C for the first, 124 to 126 °C for the second.

Compared with O=c1nc(-c2cccc(S(=O)Cc3ccccc3)n2)sc2ccccc12 (centres undefined), CCOC(=O)C(C)Sc1ccc(-c2nc(=O)c3ccccc3s2)cn1 (centres undefined) is lower in melting point: 208 to 210 °C for the first, 116 °C for the second.

First: CCCCn1c(C)cc(=O)n(C)c1=O
Second: CSc1cn(C)c2cc(C)sc2c1=O
The melting point of the first is higher: 181 to 182 °C for the first, 139 to 142 °C for the second.

First: Cc1cc(C(=O)O)ccc1C1=CCCCC1C(C)(C)C (centres undefined)
Second: CC(C)(C)[Si](C)(C)OC1CN(c2ccc(N3C[C@H](CO)OC3=O)cc2F)C1
The melting point of the first is lower: 152 °C for the first, 183 to 186 °C for the second.

CC(=O)c1ccc(OCC(O)COc2ccccc2)cc1O (centres undefined) and CC(C)CCCC(C)NC(=O)Oc1ccc(Oc2ccccc2)cc1Br (centres undefined) cannot be ordered by melting point: 63 to 65 °C for the first, 64 to 67 °C for the second.

Compared with CSc1ncccc1NC(=O)CCCCCSc1nc2ccccc2o1, CN(NC(=O)c1ccccc1C(=O)O)c1nc2ccccc2o1 is higher in melting point: 127 to 128 °C for the first, 140 to 142 °C for the second.

Compared with CC(CCCC(C)C1CCC2C3CC=C4CC(O)CCC4(C)C3CCC12C)CO[Si](C)(C)C(C)(C)C (centres undefined), CCOC(=O)c1ccc(-c2ccc(OCCCNC3CC3)c(-c3ccc4c(c3)C(C)(C)CCC4(C)C)c2)cc1 is higher in melting point: 93.5 °C for the first, 141 °C for the second.

Compared with Nc1c(-c2cc(Cl)ccc2O)c2ccc(C(F)(F)F)cc2[nH]c1=O, O=c1[nH]c2cc(Cl)ccc2c(=O)n1S(=O)(=O)c1c(Cl)cccc1Cl is higher in melting point: 225 to 227 °C for the first, 260 to 261 °C for the second.

First: CC(C)(CO)CCCC(O)CCC(O)CCCC(C)(C)CO (centres undefined)
Second: CCCCSCC(=O)N(Cc1cccnc1)C(C)(C)C
The melting point of the first is higher: 96 to 97 °C for the first, 55 to 56 °C for the second.

First: Cc1nc2sccn2c1C1=NNC(=O)NC1
Second: COC(=O)c1nn(-c2ccc(I)cc2F)cc(OC)c1=O
The melting point of the first is higher: 293 to 295 °C for the first, 160 to 162 °C for the second.

Compared with CC(Cn1ncnn1)n1nnc2cc3c(=O)n(CCF)nnc3cc2c1=O (centres undefined), Cc1c(Cc2ccccc2)c(=O)n(C)c2cc(OCc3nnn[nH]3)cc(OCc3nnn[nH]3)c12 is higher in melting point: 196 to 198 °C for the first, 250 to 253 °C for the second.

First: Cc1oc(-c2ccccc2)nc1COc1ccc(COc2nn(-c3ccccc3)cc2CC(=O)O)cn1
Second: O=C(Nc1ccccc1CS(=O)c1nccn1-c1ccccn1)c1ccccc1 (centres undefined)
The melting point of the first is higher: 164 to 165 °C for the first, 109 to 111 °C for the second.

First: N#CC(c1ccccc1)(c1ccccc1)C1CN(C2CCCCC2)C1
Second: O=C(N1CCCC1)C1(Cc2ccccc2)CCN(Cc2ccccc2)CC1
The melting point of the first is lower: 111 to 114 °C for the first, 129 °C for the second.

First: COc1cc(C)c(C(=O)c2c(OC)ccc3ccccc23)c(OC)c1OC
Second: COc1ccc(Nc2ncc(Br)c(Nc3ccc(OC)c(OC)c3OC)n2)c(OC)c1OC
The melting point of the first is lower: 72 °C for the first, 186 to 191 °C for the second.

First: Cc1nnc2n1-c1sc(Cl)cc1C(c1c(F)cccc1F)=NC2
Second: COc1ccc(F)c2c1C(=O)c1ccncc1C2=O
The melting point of the first is lower: 185 to 187 °C for the first, > 220 °C for the second.

First: COc1ccc(-c2cnc3cc4cnn(C[C@@H](O)CO)c4cc3n2)cc1F
Second: CNc1nc(-c2cccc(-c3ccc(SC)cc3)c2)c2cc(OC)c(OC)cc2n1
The melting point of the first is higher: 228 to 234 °C for the first, 140 to 142 °C for the second.

First: CN1CCc2cccc3c2C1Cc1ccc(O)c(O)c1-3 (centres undefined)
Second: CN1CCCC1=NC(=O)Nc1ccc(OCc2ccccc2)c(Cl)c1
The melting point of the first is higher: 158 to 160 °C for the first, 115 to 117 °C for the second.

First: Cc1ccc(S(=O)(=O)N2CCN(Cc3ccccc3)CCN(S(=O)(=O)c3ccc(C)cc3)CCN(S(=O)(=O)c3ccc(C)cc3)CC2)cc1
Second: Cc1ccc(S(=O)(=O)OCCCC2CCN(C(c3ccccc3)(c3ccccc3)c3ccccc3)CC2)cc1
The melting point of the first is higher: 208 to 210 °C for the first, 131 °C for the second.

Compared with CCN(CC)c1ccc(NC(=O)c2ccc(-c3[nH]nc4c3C(=O)c3c(NC(=O)NN5CCOCC5)cccc3-4)s2)cc1, CN1CCN(CCOc2ccc(Nc3ncc4ccc(-c5cccnc5)n4n3)cc2)CC1 is lower in melting point: 198 to 199 °C for the first, 107 to 110 °C for the second.

First: O=C(O)Cc1ccc(Oc2ccc(Cl)nn2)cc1
Second: Oc1ccc(Oc2ccc(Cl)cc2Cl)cc1
The melting point of the first is higher: 124 to 127 °C for the first, 82 °C for the second.

First: NCC1COc2cc(Cl)cc(-c3ccccc3)c2N1 (centres undefined)
Second: CS(=O)(=O)Nc1cc2occ(C#N)c(=O)c2cc1Oc1ccccc1
The melting point of the first is lower: 92 °C for the first, 220 °C for the second.

First: COc1cc2c(c3c1C1CCC3CC1)OC(CN)C2 (centres undefined)
Second: COc1c(O)c(C=O)cc2c1OCC2
The melting point of the first is higher: > 210 °C for the first, 71 to 72 °C for the second.

First: CCOC(=O)c1cc(NC(C)=O)cnc1C(=O)OCC
Second: CCOC(=O)c1ccc(/C=C/c2ccc3c(c2)C(C)(C)CC3(C)C)cc1
The melting point of the first is lower: 108 to 110 °C for the first, 151 to 152 °C for the second.

First: N#Cc1cccn1-c1cccc(C(=O)N=C(N)N)c1
Second: N#Cc1cnn2cccc2c1NC1(c2ccc(Cl)cc2Cl)CC1
The melting point of the first is lower: 136 to 138 °C for the first, 208 °C for the second.

First: CCCCc1nn2cc(C)nc2n1Cc1ccc(-c2ccccc2-c2nnn[nH]2)cc1
Second: CC(C)(C)c1cc(CCC(N)=O)cc(-n2nc3ccc(S(=O)(=O)c4ccccc4)cc3n2)c1O
The melting point of the first is lower: 124 to 125 °C for the first, 144 to 145 °C for the second.

Compared with CCCOc1nn(-c2ccc(C(F)(F)F)cn2)cc1CCCOc1ccc(CCC(=O)O)c(OCC)c1, CS(=O)(=O)N(Cc1cccnc1)c1cccc(C(F)(F)F)c1 is lower in melting point: 112 to 113 °C for the first, 106 to 110 °C for the second.

Compared with CCCc1c(OCc2ccccc2)ccc2c1OC(C(=O)OC)(C1CC1C(=O)OC)CC2 (centres undefined), O=C(O)CCSC(C(=O)O)c1ccccc1CCCCCCCCc1ccccc1 (centres undefined) is higher in melting point: 82 to 84 °C for the first, 86 to 87 °C for the second.

First: Cc1ncccc1Oc1ccc(C(=N)Nc2cc(Cl)cc(NC(=O)C=Cc3ccccc3Cl)c2)cc1
Second: CC(C)(C)OC(=O)N[C@H](c1ccc(Cl)cc1)[C@H](c1ccc(Cl)cc1)[N+](=O)[O-]
The melting point of the first is lower: 105 to 107 °C for the first, 172 to 174 °C for the second.

First: CCCc1cc(=O)oc2cc(OC(=O)C(C)(C)C)c3c(c12)OC(C)(C)C=C3
Second: O=C(O)Cc1cccc(C(=O)c2cc3ccsc3s2)c1
The melting point of the first is lower: 65 to 68 °C for the first, 121 °C for the second.

First: O=c1ccc(-c2ccc(Cl)cc2)c[nH]1
Second: CC(=O)N(C(=O)C1=NN(c2ccc(Cl)cc2)C(c2ccc(Cl)cc2)C1)c1ccc(C(F)(F)F)cc1 (centres undefined)
The melting point of the first is higher: 183 to 186 °C for the first, 158 to 160 °C for the second.

First: C=Cc1cccc(OC)c1[N+](=O)[O-]
Second: COc1ccccc1C(O)c1cc(Br)cc(Br)c1 (centres undefined)
The melting point of the first is lower: 55 to 56 °C for the first, 112 to 116 °C for the second.

First: COC=C(C#N)CNC=O
Second: COc1cc(C=O)cc(OC)c1F
The melting point of the first is lower: 84 to 86 °C for the first, 97 to 98 °C for the second.

First: COc1cc(NS(=O)(=O)c2ccc3c(c2)CCN3C=O)cc(OC)c1OC
Second: O=Cc1cn(-c2ccccn2)nc1-c1ccc([N+](=O)[O-])o1
The melting point of the first is higher: 200 to 201 °C for the first, 191 to 192 °C for the second.

With CC(=NC(C#N)=C(N)C#N)c1ccco1 the melting point was 175 to 176 °C.
